This note sets out measurements from patent US20260007756A1, “COMPOUND AND USE THEREOF” (COHERENT BIOPHARMA (SUZHOU) LIMITED, priority 2022, published 2026).

Data set [1] is described as follows: Solubility study in PBS. It is filed as physicochemical. The following applies: aqueous buffer, thermodynamic from solid; PBS (pH 7.2 to 7.4); read-out: Solubility, concentration. The procedure:
The mixture was vortexed for 2 min until the solid was dissolved. The solubility was calculated as: C=m/V, C: concentration, m: sample weight, V: PBS total volume.

In data set [2] the test system is A549. Description: Expansion inhibition of tumor cells (Example 7, CCK-8). The data set is classed as cell-based. To be noted: Homo sapiens, A549 (no detectable FOLR1 or PSMA expression), 72 h. The method, then:
(§1) Samples were serially diluted with medium (serially 5-fold diluted from 10 μM) to 9 concentrations. […] Negative and blank controls were set.
(§2) A CCK-8 developing solution was added at 10 μL/well (10% of the liquid volume in the wells). The plates were incubated at 37° C. for a proper time (the OD value was controlled within the range of 1.0-2.5 as possible). The plate covers were removed, and the 96-well plates were loaded on a microplate reader (Molecular Devices SpectraMax iD5) to read the measurement at 450 nm.

Data set [3] deals with HepG2. The description is as above. The data set is classed as cell-based. The following applies: Homo sapiens, HepG2 (no detectable FOLR1 or PSMA expression), 72 h. The procedure: as §1, §2
The test system of data set [4] is NCI-H460. The description is as above. The following applies: Homo sapiens, NCI-H460 (no detectable FOLR1 or PSMA expression), 72 h. The data set is classed as cell-based. The method, then:
as §1, §2

Data set [5] has as its system PC-3. Described as above. The data set is classed as cell-based. To be noted: Homo sapiens, PC-3 (no detectable FOLR1 or PSMA expression), 72 h. The method, then: as §1, §2
In data set [6] the test system is human breast cancer MDA-MB-231 cell subcutaneous xenograft. The experiment in a line: Pharmacodynamic assessment, MDA-MB-231 xenograft model. The data set is classed as in vivo. To be noted: 4 mg/kg iv biw×3. The text has this:
Objective: Pre-clinical pharmacodynamic study of test compounds CR20274, CR20282, and CR20285 in BALB/c nude mouse model with human breast cancer MDA-MB-231 cell subcutaneous xenograft.
Procedures: MDA-MB-231 tumor mass was grafted subcutaneously at the right axilla of the mice, and the mice were randomized after the mean tumor volume was 200 mm^3. After administration, the animals were monitored daily for health conditions and death, and the routine examinations included observation of the effect on tumor growth and the effect of the treatment on the daily performance of the animals, such as behavioral activities, food and water intake, weight changes (measured once every other day), appearance, or other abnormal conditions. Whether the tumor growth was inhibited or delayed or the tumor was cured was also observed. The tumor volume was measured periodically. The tumor volume was calculated using the following formula: V=1/2×(a×b^2), where a and b denote the long diameter and short diameter of the tumor, respectively. The calculation formula for the tumor growth inhibition, TGI (%), is TGI %=(1−T/C)×100% (T and C are the mean tumor volume of the treatment group and control group, respectively, at a particular time point).

The subject of data set [7] is human prostate cancer C4-2 cell subcutaneous xenograft tumor. The experiment in a line: Pharmacodynamic assessment, C4-2 xenograft model. The data set is classed as in vivo, NCG mouse. The following applies: 4 mg/kg i.v biw×3, day 23 after grouping. The text has this: Objective: Pre-clinical assessment of the efficacy of compounds for treating NCG mouse model with C4-2 cell subcutaneous xenograft tumor (overexpressing PSMA).
(§3) Procedures: C4-2 cells were subcutaneously grafted at the right back of the mice, and the mice were randomized when the mean tumor volume reached 100-150 mm^3. After the administration, the routine monitoring included the effect on tumor growth and the effect of treatment on the normal behavior of the animals, specifically the activity, food and water intake, weight gain or loss, the eyes, the hair, and other abnormal conditions. Clinical symptoms observed during the study were recorded in the raw data. After the administration was started, the body weight and tumor size of the mice were measured periodically. The tumor volume was calculated using the following formula: V=1/2×(a×b^2), where a and b denote the long diameter and short diameter of the tumor, respectively.

Data set [8] has as its system HT-29 cell subcutaneous xenograft tumor. The experiment in a line: Pharmacodynamic assessment, HT-29 xenograft model. The data set is classed as in vivo, BALB/c nude mouse.
Text: Objective: Pre-clinical assessment of the efficacy of CR202 series of compounds for treating BALB/c nude mouse model with HT-29 cell subcutaneous xenograft tumor.
as §3, with “HT-29” for “C4-2”

A short description of data set [9]: Single-dose PK assessment, tumor concentration in HT-29 xenograft mice. The data set is classed as in vivo, BALB/c nude male mouse. The following applies: 2 mg/kg CR20274 single tail vein injection. The procedure: Objective: Single-dose PK assessment of compounds CR20214 and CR20274 in BALB/c nude male mouse model with human colorectal cancer HT-29 cell subcutaneous xenograft.
Procedures: HT-29 cells were grafted subcutaneously on the right back of the mice (purchased from GemPharmatech Co., Ltd., weighing 20-25 g, male, aged 45-60 days), and the mice were randomized when the mean tumor volume reached about 300 mm^3. 6.25 mg/kg of CR20214 and 2 mg/kg of CR20274 were given to the HT-29 tumor-bearing mice in a single dose by tail vein injection. The tumors were taken at […], 0.25, 0.5, 1, 2, 4, 8, 24, 48 and 72 h post-dose, ground, and homogenized. The homogenate was extracted, and after centrifugation, the supernatants were injected into a triple quadrupole tandem mass spectrometer to determine the CR20274 content in the tumors.

Experiment in data set [10]: as above
It is filed as in vivo, BALB/c nude male mouse. The following applies: 2 mg/kg CR20274 single tail vein injection, 5 min.

[11] abbreviates: 2 mg/kg i.v BIW×3, day 25 after grouping.
The mark [12] stands for this setting: 4 mg/kg i.v BIW×3, day 25 after grouping.

Take `CC[C@@H]1C(=O)N(C)c2cnc(Nc3ccc(-c4cn([C@H]5CC[C@@H](NCCOCCC#Cc6cccc7c6CN(C6CCC(=O)NC6=O)C7=O)CC5)nn4)cc3OC)nc2N1C1CCCC1` (stereo partly shown) [CR20274]: in data set [1], the solubility at 2 min is < 900 µg/mL. In addition, the IC50 – broadly, the midpoint of a concentration-inhibition curve – worked out at 124 nM in data set [2], 107 nM in data set [3], 314 nM in data set [4] and 103 nM in data set [5]. Besides, in data set [6], the “Anti-tumor effect” value is “no anti-tumor effect”. Also, the Mean tumor volume came out at 2198.07 mm^3 in [7], 1575.84 mm^3 in data set [8] (setting [11]) and 1316.64 mm^3 in [8] (setting [12]). Also, the TGI in data set [7] is on record as −25.70%; in [8] (setting [11]), 24.23%; in [8] (setting [12]) it was 36.69%. Also, the “Concentration of CR20274 in tumors (C2)” value in [9] (0.25 h) is on record as 0.206 nmol/g; in data set [9] (0.5 h), 0.222 nmol/g; in data set [9] (1 h), 0.191 nmol/g; in data set [9] (2 h), 0.180 nmol/g; in data set [9] (4 h) it was 0.164 nmol/g; in data set [9] (8 h) it was 0.154 nmol/g. The “Concentration of CR20274 in tumors (C2)” value in data set [9] (24 h) is 0.104 nmol/g; in data set [9] (48 h), 0.064 nmol/g; in [9] (72 h), 0.044 nmol/g; in data set [10] it was 0.227 nmol/g.
